Consider 6 molecules from patent US4309425A (priority 1980, dated 1982).

Each structure is given as a SMILES string. Like-named read-outs stand apart in the source and are kept apart here.

One assay relates to adult houseflies. Nature of the assay: adult houseflies spray test. It counts as in vivo, housefly. The conditions noted are these: Musca domestica; 1% acetone solutions, 24 hours. From the text: Twenty adult houseflies were confined in each of several cylindrical stainless steel cages (7.5 cm D×4 cm high) with wire screens of the ends. These were sprayed with 1% acetone solutions of the indicated compounds.

Assay [1] concerns Erysiphe cichoracearum. Nature of the assay: cucumber powdery mildew photostability test. The class given is in vivo. The conditions noted are these: Golovinomyces cichoracearum, 168 h, xenon arc 3500 foot candles 16 hours, 7 days. How it is done:
(§1) Compounds of this invention are dissolved in acetone in an amount equal to 6% of the final volume and then suspended at a concentration of 20 ppm in purified water containing 25 ppm of the surfactant Alkanol® XC (sodium alkyl naphthalene sulfonate). This suspension is sprayed to the point of run-off in cucumber seedlings. When the foliage is dry, the plants are exposed to 3500 foot candles of light from a xenon arc source for a period of 16 hours. This light source approximates the spectrum of natural sunlight, and is used to assess photostability of the compounds of this invention on plant foliage. The following day, the plants are inoculated with a spore suspension of the fungus Erysiphe cichoracearum and incubated in a growth room for 7 days. Disease ratings are then made.

Assay [2] has as its system Eggs of the beet armyworm (Spodoptera exigua). Kind of assay: beet armyworm egg (ovicidal) test, % eggs failing to hatch. It counts as in vivo. The conditions noted are these: 72 h, three days, read-out: % Control (% eggs failing to hatch); for mortality at 1 %: 1% in acetone; for mortality at 200 ppm: 200 ppm in acetone. How it is done: Eggs of the beet armyworm (Spodoptera exigua), laid on cellophane discs each containing 50-75 eggs, were placed in petri dishes and lightly sprayed with 1% concentrations of the indicated compounds in acetone solution. Three days later, percent control (% eggs failing to hatch) was determined.
Eggs of the beet armyworm (Spodoptera exigua), laid on cellophane discs each containing 50-75 eggs, were placed in petri dishes and lightly sprayed with 200 ppm concentration of the indicated compounds in acetone solution. Three days later, percent control (% eggs failing to hatch) was determined.

In assay [3] the test system is Phytophthora infestans. Nature of the assay: whole plant or invertebrate. The class given is in vivo. The conditions noted are these: in Solanum lycopersicum, 96 h, read-out: % control tomato late blight in a residual wash-off test.
Assay [4] has as its system Puccinia graminis var. tritici. Nature of the assay: whole plant or invertebrate. The class given is in vivo. The conditions noted are these: 192 h, read-out: % control wheat rust in a photostability test.
The test system of assay [5] is Puccinia graminis var. tritici. Kind of assay: whole plant or invertebrate. The class given is in vivo. As to conditions: 192 h, read-out: % control wheat rust in preventive test.
The subject of the next assay is Erisyphe cichoracearum. Nature of the assay: cucumber powdery mildew curative test. It counts as in vivo. The conditions noted are these: Cucumis sativus, 144 h, sprayed day after inoculation, additional 6 days. The source says:
Cucumber plants are inoculated with a spore suspension of the fungus Erisyphe cichoracearum and in a growth room overnight. The following day, the plants are sprayed to the point of run-off with a suspension prepared by dissolving compounds of this invention in acetone in an amount equal to 6% of the final volume and then suspended at a concentration of 20 ppm in purified water containing 25 ppm of the surfactant Alkanol® XC (sodium alkyl naphthalene sulfonate). Plants are returned to the growth room for an additional 6 days when disease ratings are then made. […] Phytotoxicity in the form of foliar burn or growth reduction was observed on some of the plants in association with disease control.

The subject of assay [6] is Erysiphe cichoracearum. Nature of the assay: cucumber powdery mildew residual wash-off test. The class given is in vivo. The conditions noted are these: Golovinomyces cichoracearum, 168 h, 1/2 inch simulated rainfall, 7 days. On the procedure: (§2) Compounds of this invention are dissolved in acetone in an amount equal to 6% of the final volume and then suspended at a concentration of 20 ppm in purified water containing 25 ppm of the surfactant Alkanol® XC (sodium alkyl naphthalene sulfonate). This suspension is sprayed to the point of run-off on cucumber seedlings. The following day, 1/2 inch of simulated rainfall is applied to the foliage of the plants. When the foliage is dry, the plants are inoculated with a spore suspension on the fungus Erysiphe cichoracearum and incubated in a growth room for 7 days. Disease ratings are then made.

Assay [7] concerns adult cotton boll weevils (Anthonomus grandis). Nature of the assay: adult cotton boll weevils spray test. As to conditions: 1% acetone solution, 24 hours. The class given is in vivo. How it is done: Five adult cotton boll weevils (Anthonomus grandis) were confined in a 4-oz. wide mouth jar. These were sprayed with a 1% acetone solution of the indicated compounds. Percent mortality after 24 hours is set forth below.

Assay [8] relates to Erysiphe cichoracearum. Kind of assay: cucumber powdery mildew preventive test. The class given is in vivo. The conditions noted are these: Golovinomyces cichoracearum, 168 h, 7 days. On the procedure: as §2, with “day,” for “day, 1/2 inch of simulated rainfall is applied to the foliage of the plants. When the foliage is dry,”, “suspension of” for “suspension on”, “made. […] Phytotoxicity in the form of foliar burn or growth reduction was observed on some of the plants in association with disease control.” for “made.”

Assay [9] concerns Puccinia graminis var. tritici. Nature of the assay: whole plant or invertebrate. The conditions noted are these: 192 h, read-out: % control wheat rust in residual wash-off test. The class given is in vivo.
Assay [10] concerns Venturia inaequalis. Nature of the assay: apple scab photostability test. The conditions noted are these: xenon arc 3500 foot candles 16 hours, 10-12 days. It counts as in vivo. On the procedure: as §1, with “on apple” for “in cucumber”, “Venturia inaequalis” for “Erysiphe cichoracearum”, “10-12” for “7”, “made. […] Phytotoxicity in the form of foliar burn was observed on some of the plants in association with disease control.” for “made.”

The next assay has as its system Pythium. Kind of assay: Pythium infested soil test, cotton. The conditions noted are these: 1.5 kg/ha, 8 days. The class given is in vivo. The source says: Pythium infested soil was placed in a 900 cc cup. Compounds of this invention were mixed at a rate of 1.5 kg/ha in a section 2" wide×2" deep×4" long to simulate an in-the-row application. Five cotton seeds were planted in the treated soil. After 8 days, the cotton plants were removed and rated for disease control.

The subject of assay [11] is Venturia inaequalis. Kind of assay: apple scab residual wash-off test. As to conditions: 1/2 inch simulated rainfall, 10-12 days. It counts as in vivo. How it is done: as §2, with “on apple” for “on cucumber”, “suspension of” for “suspension on”, “fungus Venturia inaequalis” for “fungus Erysiphe cichoracearum”, “for 10-12” for “for 7”, “made. […] Phytotoxicity in the form of foliar burn was observed on the plants in association with disease control.” for “made.”

A further assay concerns Rhizoctonia solani. Kind of assay: Rhizoctonia solani infested soil test, cotton. It counts as in vivo. The conditions noted are these: 192 h, 1.5 kg/ha, 8 days. From the text: Rhizoctonia solani-infested soil was placed in a 900 cc cup. Compounds of this invention were mixed at a rate of 1.5 kg/ha in a section 2" wide×2" deep×4" long to simulate an in-the-row application. Five cotton seeds were planted in the treated soil. After 8 days, the cotton plants were removed and rated for disease control.

Assay [12] deals with Venturia inaequalis. Nature of the assay: apple scab preventive test. As to conditions: 10-12 days. It counts as in vivo. On the procedure: Compounds of this invention are dissolved in acetone in an amount equal to 6% of the final volume and then suspended at a concentration of 20 ppm in purified water containing 25 ppm of the surfactant Alkanol® XC (sodium alkyl naphthalene sulfonate). This suspension is sprayed to the point of run-off on apple seedlings. The following day, the plants are inoculated with a spore suspension of the fungus Venturia inaequalis and incubated in a growth room for 10-12 days. Disease ratings are then made. […] Phytotoxicity in the form of foliar burn was observed on some of the plants in association with disease control.

The subject of assay [13] is Phytophthora infestans. Kind of assay: whole plant or invertebrate. It counts as in vivo. The conditions noted are these: in Solanum lycopersicum, 96 h, read-out: % control tomato late blight in a photostability test.
Assay [14] deals with Phytophthora infestans. It counts as in vivo. As to conditions: 20 ppm, 4 days.

`O=C1CCCN1SN(c1cc(C(F)(F)F)ccc1Cl)c1c([N+](=O)[O-])cc([N+](=O)[O-])cc1C(F)(F)F`: the mortality at 1 % (with adult houseflies; in assay [2]; in [7]) was 100% each time. Besides, the pest or weed control at 20 ppm in the assay on Erysiphe cichoracearum [1] was 97%; in the assay with Phytophthora infestans [3], 50%; in assay [4], 100%; in assay [5], 100%; with Erisyphe cichoracearum, 100%; with Erysiphe cichoracearum [6] it was 30%. For the same molecule, the pest or weed control at 20 ppm in the assay on Erysiphe cichoracearum [8] is 100%; in assay [9], 100%; in the assay on Venturia inaequalis [10], 50%; with Venturia inaequalis [11] it was 75%. Also, the “% control Pythium” value in the assay with Pythium came to 50%. This molecule also showed a pest or weed control at 1500 g/ha in the assay with Rhizoctonia solani of 90%.
In the case of `COC(=O)CN(SN(c1cc(C(F)(F)F)ccc1Cl)c1c([N+](=O)[O-])cc([N+](=O)[O-])cc1C(F)(F)F)S(=O)(=O)c1ccc(C)cc1`, the pest or weed control at 20 ppm was determined as 0% with Venturia inaequalis [12]; 0% with Erysiphe cichoracearum [1]; 0% in the assay on Phytophthora infestans [3]; 20% in assay [4]; 30% in assay [5]; 0% with Erisyphe cichoracearum. Also, the pest or weed control at 20 ppm in the assay with Erysiphe cichoracearum [6] is 0%; in the assay with Phytophthora infestans [13], 0%; with Erysiphe cichoracearum [8], 0%; in assay [9] it was 25%; in the assay with Venturia inaequalis [10], 0%; in the assay with Venturia inaequalis [11], 0%. Besides, in the assay with Phytophthora infestans [14], the “% control tomato late blight in a preventive test” value is recorded as 0%. For the same molecule, the “% control Pythium” value in the assay with Pythium worked out at 50%. The molecule also had a pest or weed control at 1500 g/ha in the assay on Rhizoctonia solani of 50%.
In the case of `CCCCN(SN(c1cc(C(F)(F)F)ccc1Cl)c1c([N+](=O)[O-])cc([N+](=O)[O-])cc1C(F)(F)F)S(=O)(=O)N(C)C`, the pest or weed control at 20 ppm with Venturia inaequalis [12] came out at 100%; in the assay on Erysiphe cichoracearum [1] it was 80%; in the assay with Phytophthora infestans [3], 93%; in [4] it was 80%; in [5], 100%; in the assay with Erisyphe cichoracearum, 99%. Besides, the pest or weed control at 20 ppm in the assay with Erysiphe cichoracearum [6] was 98%; with Phytophthora infestans [13], 90%; with Erysiphe cichoracearum [8], 100%; in [9], 90%; in the assay on Venturia inaequalis [10], 0%; in the assay on Venturia inaequalis [11], 100%. In addition, the mortality at 1 % (in the assay with adult houseflies; in [2]; in assay [7]) was 100% throughout. Moreover, in the assay with Pythium, the “% control Pythium” value is on record as 0%. The pest or weed control at 1500 g/ha with Rhizoctonia solani was found to be 0%.
As for `CN(SN(c1cc(C(F)(F)F)ccc1Cl)c1c([N+](=O)[O-])cc([N+](=O)[O-])cc1C(F)(F)F)S(=O)(=O)c1ccc2ccccc2c1`, the pest or weed control at 20 ppm was determined as 50% in the assay with Venturia inaequalis [12]; 75% in the assay on Erysiphe cichoracearum [1]; 100% in the assay with Phytophthora infestans [3]; 100% in [4]; 100% in assay [5]; 50% with Erisyphe cichoracearum. Besides, the pest or weed control at 20 ppm in the assay on Erysiphe cichoracearum [6] was 85%; in the assay on Phytophthora infestans [13], 100%; in the assay with Erysiphe cichoracearum [8], 100%; in assay [9], 100%; with Venturia inaequalis [10], 0%; in the assay with Venturia inaequalis [11], 100%. Besides, the mortality at 1 % (with adult houseflies; in assay [2]; in [7]) was 100% each time. For the same molecule, in the assay with Pythium, the “% control Pythium” value came to 0%. The pest or weed control at 1500 g/ha with Rhizoctonia solani worked out at 0%.
For `CN(SN(c1cc(C(F)(F)F)ccc1Cl)c1c([N+](=O)[O-])cc([N+](=O)[O-])cc1C(F)(F)F)S(=O)(=O)c1ccc(Cl)cc1` [4-chloro-N-[N-(2-chloro-5-trifluoromethylphenyl)-N-(2,4-dinitro-6-trifluoromethylphenyl)aminothio]-N-methylbenzenesulfonamide], the mortality at 200 ppm in assay [2] was found to be 100%.
With `COCCN(SN(c1cc(C(F)(F)F)ccc1Cl)c1c([N+](=O)[O-])cc([N+](=O)[O-])cc1C(F)(F)F)S(=O)(=O)c1ccc(C)cc1` [N-[N-[2-chloro-5-(trifluoromethyl)phenyl]-N-[2,4-dinitro-6-trifluoromethylphenyl]aminothio]-N-(2-methoxyethyl)-4-methylbenzenesulfonamide], the mortality at 200 ppm in [2] was found to be 100%.
